From patent US10906915B2, “Substituted pyrazoloazepin-4-ones and their use as phosphodiesterase inhibitors” (LEO Pharma A/S, priority 2016, dated 2021)

Biological target: human PDE4D catalytic domain (UniProt no. Q08499) (Homo sapiens (Human), UniProt Q08499)
Test: PDE4 assay (TR-FRET, FAM-cAMP cleavage)
Assay type: biochemical
Details: human PDE4D catalytic domain; molar concentration giving 50% inhibition of substrate cleavage; read-out: PDE4 IC50 range
Procedure: The human PDE4D catalytic domain (UniProt no. Q08499 [[…]]) was incubated with a mixture of non-labelled cAMP (cyclic adenosine monophosphate) and fluorescein amidite (FAM) conjugated cAMP and titrated test or reference compound. Following brief incubation the enzymatic reaction was stopped by addition of binding buffer containing nanoparticles with immobilized trivalent metal ions capable of binding 1) AMP phospho groups and 2) terbium (Tb) donor fluorophores. Subsequent excitation of the Tb donor triggers time-resolved FRET to adjacent FAM acceptor molecules resulting in light emission. In the presence of a PDE4 inhibitor, AMP generation was reduced resulting in a lower fluorescence signal. The cAMP phosphodiester is not bound by the detection system.
The results were calculated as the molar concentrations resulting in 50% inhibition of the substrate cleavage compared to controls samples, and are expressed as a range of IC50 (nM).

Chain of human PDE4D catalytic domain (Q08499 380-740 limits assumed): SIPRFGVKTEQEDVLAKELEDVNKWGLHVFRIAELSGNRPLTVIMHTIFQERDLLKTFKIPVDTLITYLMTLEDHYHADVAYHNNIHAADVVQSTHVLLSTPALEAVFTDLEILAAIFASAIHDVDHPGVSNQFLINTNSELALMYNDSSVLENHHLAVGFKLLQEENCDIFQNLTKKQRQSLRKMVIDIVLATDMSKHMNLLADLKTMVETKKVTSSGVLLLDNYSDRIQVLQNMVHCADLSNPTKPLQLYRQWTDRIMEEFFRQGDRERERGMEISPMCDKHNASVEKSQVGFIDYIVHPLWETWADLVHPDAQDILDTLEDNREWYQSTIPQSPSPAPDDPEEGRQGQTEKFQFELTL

Row | Compound | IC50 [nM]
1 | CCc1nn(CCCOC(=O)c2ccccc2C)c2c1C(=O)NCC1(CCOCC1)C2 [Example 16, 3-(3-ethyl-4-oxo-spiro[6,8-dihydro-5H-pyrazolo[4,3-c]azepine-7,4′-tetrahydropyran]-1-yl)propyl 2-methylbenzoate] | < 100
2 | CCc1nn(C[C@@H](C)COC(=O)c2cc(OC)cc(C(F)(F)F)c2)c2c1C(=O)NCC1(CCOCC1)C2 [Example 232, [(2R)-3-(3-ethyl-4-oxo-spiro[6,8-dihydro-5H-pyrazolo[4,3-c]azepine-7,4′-tetrahydropyran]-1-yl)-2-methyl-propyl] 3-methoxy-5-(trifluoromethyl)benzoate] | < 100
3 | CCc1nn(C[C@@H](C)COC(=O)c2ccc(C(F)(F)F)cc2Cl)c2c1C(=O)NCC1(CCOCC1)C2 [Example 237, [(2R)-3-(3-ethyl-4-oxo-spiro[6,8-dihydro-5H-pyrazolo[4,3-c]azepine-7,4′-tetrahydropyran]-1-yl)-2-methyl-propyl] 2-chloro-4-(trifluoromethyl)benzoate] | < 100
4 | CCc1nn(CCCOC(=O)c2cc(OC)ccc2C(F)(F)F)c2c1C(=O)NCC1(CCOCC1)C2 [Example 119, 3-(3-ethyl-4-oxo-spiro[6,8-dihydro-5H-pyrazolo[4,3-c]azepine-7,4′-tetrahydropyran]-1-yl)propyl 5-methoxy-2-(trifluoromethyl)benzoate] | < 100
5 | CCc1nn(C[C@@H](C)COC(=O)c2cccc(S(=O)(=O)N3CCOCC3)c2)c2c1C(=O)NCC1(CCOCC1)C2 [Example 248, [(2R)-3-(3-ethyl-4-oxo-spiro[6,8-dihydro-5H-pyrazolo[4,3-c]azepine-7,4′-tetrahydropyran]-1-yl)-2-methyl-propyl] 3-morpholinosulfonylbenzoate] | < 100
6 | CCc1nn(C[C@@H](C)COC(=O)c2ccc(S(=O)(=O)CC)cc2)c2c1C(=O)NCC1(CCOCC1)C2 [Example 227, [(2R)-3-(3-ethyl-4-oxo-spiro[6,8-dihydro-5H-pyrazolo[4,3-c]azepine-7,4′-tetrahydropyran]-1-yl)-2-methyl-propyl] 4-ethylsulfonylbenzoate] | < 100
7 | CCc1nn(CCCOC(=O)c2cccc(S(C)(=O)=O)c2)c2c1C(=O)NCC1(CCOCC1)C2 [Example 99, 3-(3-ethyl-4-oxo-spiro[6,8-dihydro-5H-pyrazolo[4,3-c]azepine-7,4′-tetrahydropyran]-1-yl)propyl 3-methylsulfonylbenzoate] | < 100
8 | CCc1nn(C[C@@H](C)COC(=O)c2ccc(F)c(C(F)(F)F)c2)c2c1C(=O)NCC1(CCOCC1)C2 [Example 224, [(2R)-3-(3-ethyl-4-oxo-spiro[6,8-dihydro-5H-pyrazolo[4,3-c]azepine-7,4′-tetrahydropyran]-1-yl)-2-methyl-propyl] 4-fluoro-3-(trifluoromethyl)benzoate] | < 100
9 | CCc1nn(CCCOC(=O)c2ccc(C(=O)N3CCCC3)cc2)c2c1C(=O)NCC1(CCOCC1)C2 [Example 145, 3-(3-ethyl-4-oxo-spiro[6,8-dihydro-5H-pyrazolo[4,3-c]azepine-7,4′-tetrahydropyran]-1-yl)propyl 4-(pyrrolidine-1-carbonyl)benzoate] | 100 to 500
10 | CCc1nn(CCCOC(=O)[C@H]2CC[C@H](O)CC2)c2c1C(=O)NCC1(CCOCC1)C2 [Example 22, 3-(3-ethyl-4-oxo-spiro[6,8-dihydro-5H-pyrazolo[4,3-c]azepine-7,4′-tetrahydropyran]-1-yl)propyl trans-4-hydroxycyclohexane-carboxylate] | 100 to 500
11 | CCc1nn(CCCOC(=O)c2ccc(C(=O)NC(C)C)cc2)c2c1C(=O)NCC1(CCOCC1)C2 [Example 144, 3-(3-ethyl-4-oxo-spiro[6,8-dihydro-5H-pyrazolo[4,3-c]azepine-7,4′-tetrahydropyran]-1-yl)propyl 4-(isopropylcarbamoyl)-benzoate] | < 100
12 | CCc1nn(CCCOC(=O)c2cc(F)ccc2C)c2c1C(=O)NCC1(CCOCC1)C2 [Example 34, 3-(3-ethyl-4-oxo-spiro[6,8-dihydro-5H-pyrazolo[4,3-c]azepine-7,4′-tetrahydropyran]-1-yl)propyl 5-fluoro-2-methyl-benzoate] | < 100
13 | CCc1nn(CCCOC(=O)c2ccc(C)c(OC)c2)c2c1C(=O)NCC1(CCOCC1)C2 [Example 59, 3-(3-ethyl-4-oxo-spiro[6,8-dihydro-5H-pyrazolo[4,3-c]azepine-7,4′-tetrahydropyran]-1-yl)propyl 3-methoxy-4-methyl-benzoate] | < 100
14 | CCc1nn(CCCOC(=O)c2ccccc2S(C)(=O)=O)c2c1C(=O)NCC1(CCOCC1)C2 [Example 100, 3-(3-ethyl-4-oxo-spiro[6,8-dihydro-5H-pyrazolo[4,3-c]azepine-7,4′-tetrahydropyran]-1-yl)propyl 2-methylsulfonylbenzoate] | < 100
15 | CCc1nn(C[C@@H](C)COC(=O)c2ccccc2)c2c1C(=O)NCC1(CCOCC1)C2 [Example 163, [(2R)-3-(3-ethyl-4-oxo-spiro[6,8-dihydro-5H-pyrazolo[4,3-c]azepine-7,4′-tetrahydropyran]-1-yl)-2-methyl-propyl] benzoate] | < 100
16 | CCc1nn(CCCOC(=O)c2ccc(C)cc2C)c2c1C(=O)NCC1(CCOCC1)C2 [Example 27, 3-(3-ethyl-4-oxo-spiro[6,8-dihydro-5H-pyrazolo[4,3-c]azepine-7,4′-tetrahydropyran]-1-yl)propyl 2,4-dimethylbenzoate] | < 100
17 | CCc1nn(CCCOC(=O)c2cc(F)ccc2Cl)c2c1C(=O)NCC1(CCOCC1)C2 [Example 82, 3-(3-ethyl-4-oxo-spiro[6,8-dihydro-5H-pyrazolo[4,3-c]azepine-7,4′-tetrahydropyran]-1-yl)propyl 2-chloro-5-fluoro-benzoate] | < 100
18 | CCc1nn(CCCOC(=O)c2cc(OC)ccc2Cl)c2c1C(=O)NCC1(CCOCC1)C2 [Example 90, 3-(3-ethyl-4-oxo-spiro[6,8-dihydro-5H-pyrazolo[4,3-c]azepine-7,4′-tetrahydropyran]-1-yl)propyl 2-chloro-5-methoxy-benzoate] | < 100
19 | CCc1nn(C[C@@H](C)COC(=O)c2ccc(C(=O)NC(C)C)cc2)c2c1C(=O)NCC1(CCOCC1)C2 [Example 256, [(2R)-3-(3-ethyl-4-oxo-spiro[6,8-dihydro-5H-pyrazolo[4,3-c]azepine-7,4′-tetrahydropyran]-1-yl)-2-methyl-propyl] 4-(isopropylcarbamoyl)benzoate] | < 100
20 | CCc1nn(C[C@@H](C)COC(=O)c2ccc(C(=O)N3CCN(C(C)=O)CC3)cc2)c2c1C(=O)NCC1(CCOCC1)C2 [Example 262, [(2R)-3-(3-ethyl-4-oxo-spiro[6,8-dihydro-5H-pyrazolo[4,3-c]azepine-7,4′-tetrahydropyran]-1-yl)-2-methyl-propyl] 4-(4-acetylpiperazine-1-carbonyl)benzoate] | < 100

Same assay, conditions: read-out: PDE4 IC50 range

Row | Compound | IC50 [nM]
21 | CCc1nn(CC(C)(C)COC(=O)c2ccc(C#N)cc2F)c2c1C(=O)NCC1(CCOCC1)C2 [Example 298, [3-(3-ethyl-4-oxo-spiro[6,8-dihydro-5H-pyrazolo[4,3-c]azepine-7,4′-tetrahydropyran]-1-yl)-2,2-dimethyl-propyl] 4-cyano-2-fluoro-benzoate] | < 100
22 | CCc1nn(CCCCOC(=O)c2ccc(S(=O)(=O)C3CCCC3)cc2)c2c1C(=O)NCC1(CCOCC1)C2 [Example 376, 4-(3-ethyl-4-oxo-spiro[6,8-dihydro-5H-pyrazolo[4,3-c]azepine-7,4′-tetrahydropyran]-1-yl)butyl 4-cyclopentylsulfonylbenzoate] | 100 to 500
23 | CCc1nn(CC(C)(C)COC(=O)c2cccc(S(=O)(=O)C(C)C)c2)c2c1C(=O)NCC1(CCOCC1)C2 [Example 316, [3-(3-ethyl-4-oxo-spiro[6,8-dihydro-5H-pyrazolo[4,3-c]azepine-7,4′-tetrahydropyran]-1-yl)-2,2-dimethyl-propyl] 3-isopropylsulfonylbenzoate] | < 100
24 | CCc1nn(CCCCOC(=O)c2ccc(F)cc2)c2c1C(=O)NCC1(CCOCC1)C2 [Example 366, 4-(3-ethyl-4-oxo-spiro[6,8-dihydro-5H-pyrazolo[4,3-c]azepine-7,4′-tetrahydropyran]-1-yl)butyl 4-fluorobenzoate] | < 100
25 | CCc1nn(CCCCOC(=O)c2ccc(C(=O)N3CCOCC3)cc2)c2c1C(=O)NCC1(CCOCC1)C2 [Example 381, 4-(3-ethyl-4-oxo-spiro[6,8-dihydro-5H-pyrazolo[4,3-c]azepine-7,4′-tetrahydropyran]-1-yl)butyl 4-(morpholine-4-carbonyl)benzoate] | 100 to 500
26 | CCc1nn(CC2(COC(=O)c3ccc(C)cc3)COC2)c2c1C(=O)NCC1(CCOCC1)C2 [Example 357, [3-[(3-ethyl-4-oxo-spiro[6,8-dihydro-5H-pyrazolo[4,3-c]azepine-7,4′-tetrahydropyran]-1-yl)methyl]oxetan-3-yl]methyl 4-methylbenzoate] | < 100
27 | CCc1nn(CC(C)(C)COC(=O)c2ccc(C(=O)N3CCN(C(C)=O)CC3)cc2)c2c1C(=O)NCC1(CCOCC1)C2 [Example 338, [3-(3-ethyl-4-oxo-spiro[6,8-dihydro-5H-pyrazolo[4,3-c]azepine-7,4′-tetrahydropyran]-1-yl)-2,2-dimethyl-propyl] 4-(4-acetylpiperazine-1-carbonyl)benzoate] | < 100
28 | CCc1nn(C(C)CCOC(=O)c2ccccc2)c2c1C(=O)NCC1(CCOCC1)C2 (stereo not shown) [Example 362, 3-(3-ethyl-4-oxo-spiro[6,8-dihydro-5H-pyrazolo[4,3-c]azepine-7,4′-tetrahydropyran]-1-yl)butyl benzoate] | < 100
